The test system of assay [1] is Pseudomonas aeruginosa PAO1. In words: Mouse model of respiratory tract infection induced by Pseudomonas aeruginosa PAO1, bacterial load. The format is in vivo, mice. To be noted: day 5 post infection, I-A 185 mg/kg i.p., ciprofloxacin 2 mg/kg i.p., once a day. As to the method:
The vehicle (physiological buffer) is used as a control and is administered under the same conditions.
In each group, the bacterial load in the blood and lungs is assessed on day 5 post infection.
Leukopenia is induced by intraperitoneal injections of cyclophosphamide 4 days and 1 day before infection, with doses of 150 mg/kg and 100 mg/kg, respectively. P. aeruginosa PAO1 was obtained from ATCC. One vial is thawed and diluted in sterile PBS on the day of infection.
Bacterial load is assessed in blood and lungs on day 5. Quantitative cultures on agar gel are performed during 24 hours of incubation at 37° C. Viable bacterial colony counts are expressed as Log 10 CFU per mL of blood or per gram of organ.

In the next assay the test system is Escherichia coli. The assay can be described thus: Non-lethal model of Escherichia coli induced pneumonia, bacterial culture in the spleen. The format is in vivo, BALB/c mice. The note with it: for bacteria in the spleen: pre-treatment 185 mg/kg. The procedure: The purpose of this study is to evaluate the effect of pre-treatment, with an NAD precursor, on the spread of bacterial infection to the spleen in a mouse model of non-lethal Escherichia coli (E. coli) induced pneumonia.
The administration of the compound at 185 mg/kg and the vehicle (physiological buffer) is performed intraperitoneally and/or intratracheally.
The compound of formula I-A (white powder) is dissolved in the vehicle. The solution is used at room temperature for a maximum of 1 day and freshly prepared for each new experiment.
Immediately before use, the E. coli culture was washed twice with 0.9% NaCl. After the second wash, the pellet was re-suspended in sterile saline and the dose calibrated by nephelometry.
Female BALB/c mice (20-24 g) were then inoculated using intratracheal insertion of a gavage needle (24 G) for injection of 75 μL of the bacterial suspension.
The compound of formula I-A and the vehicle are administered to the animals intraperitoneally and/or intratracheally. The injection of the compound of formula I-A is performed 24 hours prior to the infection with Escherichia coli. Simulated animals are given a physiological buffer by intraperitoneal administration.
At 24 hours, 48 hours, and 72 hours postoperatively, spleens from sacrificed animals were weighed and homogenized in 1 mL of saline. These solutions were then used for quantitative agar gel cultures during 24 hours of incubation at 37° C. Viable bacterial colony counts are expressed as Log 10 CFU per gram of organ.

In assay [2] the test system is caecal ligation and puncture (LPC) induced sepsis. The assay can be described thus: Caecal ligation and puncture (LPC) induced sepsis model. The format is in vivo, mice. The note with it: for survival rate: compared with the control group; for Number of surviving mice: 185 mg/kg i.p. once daily; for bacterial load in the blood (bacterial DNA 16S by RT-PCR): 24 hours after LPC; for bacterial load in the blood (bacterial DNA 16S by RT-PCR) / clinical score (murine sepsis score): compared to the control group; for clinical score (murine sepsis score): after LPC at 24, 48, 72 and 96 hours; for temperature after LPC: rectal temperature, 24 hours after surgery. As to the method:
The purpose of this study is to evaluate the effect of administration of compounds according to the invention (I-A and I-B) on the survival rate of mice in a caecal ligation and puncture (LPC) induced sepsis model.
The study consists of creating a sepsis model in mice by caecal ligation and puncture (LPC) and evaluating the impact of compounds I-A and I-B on the development of sepsis for 4 days.
The test compounds are administered at 185 mg/kg, intraperitoneally, immediately after the LPC procedure, and then once daily at 24, 48, and 72 hours. The remaining mice are euthanized at 96 hours post-LPC. Vehicle (physiological buffer) is used as a control and administered under the same conditions.
Mice are anesthetized with 3% Vetoflurane. A laparotomy is performed to exteriorize the caecum. For induction of medium grade sepsis, the caecum is ligated between the distal pole and the base of the caecum. A through puncture with a 21-gauge needle is performed. A small amount of excreta is extruded from the mesenteric and antimesenteric penetration holes to ensure patency. The caecum is repositioned over the abdominal cavity. The peritoneum, fascia, abdominal musculature and then the skin are closed by applying simple sutures. The animals are resuscitated by injecting pre-warmed normal saline (37° C.; 5 ml per 100 g body weight) subcutaneously.
Administration of Compound I-A at 185 mg/kg, Compound I-B at 185 mg/kg and vehicle (physiological buffer) is performed intraperitoneally immediately after LPC surgery and then once daily at 24, 48 and 72 hours post LPC.
Survival is assessed every 12 hours for the first two days, then once a day until euthanasia.
Rectal temperature is checked every 2 to 4 hours for the first day, then twice for the second day.
These two parameters are monitored once a day.
The clinical score is defined according to the criteria defined in Table 3:
24 hours after surgery, mice were anesthetized with Vetoflurane and blood was collected from the retroorbital sinus to quantify the bacterial load. Bacterial DNA (16S) is extracted and quantified by RT-PCR.

Regarding `NC(=O)c1ccc[n+]([C@@H]2O[C@H](COP(=O)([O-])O)[C@@H](O)[C@H]2O)c1` [Compound I-A], the “reduction of blood bacterial load compared to the vehicle group” value in assay [1] is given as “approximately 2 log”. Also, in assay [1] (compared with the vehicle group), the pulmonary bacterial load result is reported as “antibacterial effect”. In the assay on Escherichia coli (after 24 hours, compared to the control group), the “percentage of animals with bacteria in the spleen” value is listed as “greatly reduced”. In the assay on Escherichia coli (pre-treatment 185 mg/kg 24 hours prior to infection, intraperitoneal administration, compared to untreated mice (control)), the “percentage of positive bacterial culture in the spleen” value is reported as “reduced the percentage of positive cultures in the spleen”. For the same compound, the “bacteria in the spleen” value with Escherichia coli (48 h after intraperitoneal administration) and in the assay with Escherichia coli (72 h after intratracheal administration) was “no bacteria were found in the spleen” in each case. Moreover, in the assay on Escherichia coli (pre-treatment, intraperitoneal and/or intratracheal administration), the “spread of bacteria from the lungs to the spleen” value is “prevented the spread of bacteria from the lungs to the spleen”. Further, the survival rate entry in assay [2] (185 mg/kg i.p.) is “improved”. Further, the “Number of surviving mice” value in assay [2] (24 h after LPC) is 12/12; in assay [2] (48 h after LPC), 11/12; in assay [2] (72 h after LPC) it was 10/12; in assay [2] (96 h after LPC), 9/12. Moreover, in assay [2], the “bacterial load in the blood (bacterial DNA 16S by RT-PCR)” value is “significantly decreased”. In assay [2], the “clinical score (murine sepsis score)” value is “very significantly improved”. Also, the “temperature after LPC” value in assay [2] (185 mg/kg i.p.) is on record as “regain their basal temperature”.
As for `NC(=O)c1ccc[n+]([C@H]2O[C@H](COP(=O)([O-])O)[C@@H](O)[C@H]2O)c1` [Compound I-B], in assay [2] (185 mg/kg i.p.), the survival rate entry was “improved”. The “Number of surviving mice” value in assay [2] (24 h after LPC) is on record as 12/12; in assay [2] (48 h after LPC), 9/12; in assay [2] (72 h after LPC), 8/12; in assay [2] (96 h after LPC), 6/12. For the same compound, in assay [2], the “bacterial load in the blood (bacterial DNA 16S by RT-PCR)” value is “significantly decreased”. For the same compound, the “clinical score (murine sepsis score)” value in assay [2] is given as “very significantly improved”. Further, the weight loss entry in assay [2] (after LPC over 24-96 hours, 185 mg/kg i.p.) was “the weight loss is less”. For the same compound, the “temperature after LPC” value in assay [2] (185 mg/kg i.p.) is reported as “regain their basal temperature”.

Source of the values: US20230210881A1, “NICOTINAMIDE MONONUCLEOTIDE DERIVATIVES FOR THE TREATMENT OF BACTERIAL INFECTIONS” (NUVAMID SA, priority 2020, published 2023).
